Data as given in patent publication US20140057915A1, “KINASE INHIBITORS” (TOPIVERT PHARMA LIMITED, priority 2012, published 2014).

Key:
[1] = tested on: IL-8 release, d-U937 cells; test: LPS-induced IL-8 release in d-U937 cells; assay type: cell-based; details: Homo sapiens, dU937; Table 4c1; read-out: LPS Induced Release of Cytokine in d-U937 Cells, IL-8 IC50
Experimental: (§1) (a) LPS-Induced TNFα/IL-8 Release in d-U937Cells
U937 cells, a human monocytic cell line, are differentiated into macrophage-type cells by incubation with PMA (100 ng/mL) for 48 to 72 hr. Cells are pre-incubated with final concentrations of test compound for 2 hr and are then stimulated with LPS (0.1 μg/mL; from E. Coli: 0111:B4, Sigma) for 4 hr. […] The relative 50% effective concentration (REC50) is determined from the resultant concentration-response curve.

cSrc = cSrc (Homo sapiens, UniProt P12931); test: c-Src enzyme inhibition (FRET); assay type: biochemical; details: Table 4a1
Sequence of cSrc (P12931 whole entry): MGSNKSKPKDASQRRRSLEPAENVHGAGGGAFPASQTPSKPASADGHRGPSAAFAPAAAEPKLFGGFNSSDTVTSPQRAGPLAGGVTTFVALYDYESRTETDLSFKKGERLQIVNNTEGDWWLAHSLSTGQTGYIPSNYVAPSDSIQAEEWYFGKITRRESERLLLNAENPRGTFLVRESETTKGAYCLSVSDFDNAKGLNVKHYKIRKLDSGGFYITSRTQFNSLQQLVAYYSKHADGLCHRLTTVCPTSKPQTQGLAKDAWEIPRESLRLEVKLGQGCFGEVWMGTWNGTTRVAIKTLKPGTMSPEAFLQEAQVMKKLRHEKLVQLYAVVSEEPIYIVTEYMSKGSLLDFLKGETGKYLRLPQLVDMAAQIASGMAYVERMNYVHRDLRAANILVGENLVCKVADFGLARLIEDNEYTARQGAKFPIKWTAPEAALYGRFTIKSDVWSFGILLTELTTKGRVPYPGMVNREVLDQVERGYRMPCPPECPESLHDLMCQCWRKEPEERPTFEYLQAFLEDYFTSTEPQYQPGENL
Experimental: (§2) The enzyme inhibitory activities of compounds disclosed herein are determined by FRET using synthetic peptides labelled with both donor and acceptor fluorophores (Z-LYTE, Invitrogen Ltd., Paisley, UK).
(§3) The relevant enzyme (3000 ng/mL or 2000 ng/mL respectively, 2.5 μL) is incubated with the test compound (either 4 μg/mL, 0.4 μg/mL, 0.04 μg/mL, or 0.004 μg/mL, 2.5 μL each) for 2 hr at RT. The FRET peptides (8 μM, 2.5 μL), and appropriate ATP solutions (2.5 μL, 800 μM for c-Src, and 60 μM ATP for Syk) are then added to the enzymes/compound mixtures and incubated for 1 hr. Development reagent (protease, 5 μL) is added for 1 hr prior to detection in a fluorescence microplate reader (Varioskan® Flash, ThermoFisher Scientific).
(§4) In all cases, the site-specific protease cleaves non-phosphorylated peptide only and eliminates the FRET signal. Phosphorylation levels of each reaction are calculated using the ratio of coumarin emission (donor) over fluorescein emission (acceptor), for which high ratios indicate high phosphorylation and low ratios indicate low phosphorylation levels.

Syk = Syk (Homo sapiens, UniProt P43405); test: Syk enzyme inhibition (FRET); assay type: biochemical; details: Table 4a1
Experimental: as §2, §3, §4

[2] = tested on: TNFα release, d-U937 cells; test: LPS-induced TNFα release in d-U937 cells; assay type: cell-based; details: Homo sapiens, dU937; relative to 10 μg/mL BIRB796; Table 4c1; read-out: LPS Induced Release of Cytokine in d-U937 Cells, TNFα REC50
Experimental: as §1
U937 cells, a human monocytic cell line, are differentiated into macrophage-type cells by incubation with PMA (100 ng/mL) for 48 to 72 hr. Cells are pre-incubated with final concentrations of test compound for 2 hr and are then stimulated with LPS (0.1 μg/mL; from E. Coli: 0111:B4, Sigma) for 4 hr. The supernatant is collected for determination of TNFα and IL-8 concentrations by sandwich ELISA (Duo-set, R&D systems). […] The relative 50% effective concentration (REC50) is determined from the resultant concentration-response curve. The inhibition of IL-8 production is calculated at each concentration of test compound by comparison with vehicle control.

[3] = tested on: ICAM-1 expression, BEAS2B cells; test: Poly I:C-induced ICAM-1 expression in BEAS2B cells; assay type: cell-based; details: Homo sapiens, BEAS-2B; read-out: Poly IC induced ICAM1 in BEAS2B, IC50
Experimental: (f) Poly I:C-Induced ICAM-1 Expression in BEAS2B Cells
Poly I:C is used in these studies as a simple, RNA virus mimic. Poly I:C-Oligofectamine mixture (1 μg/mL Poly I:C, ±2% Oligofectamine, 25 μL; Invivogen Ltd., San Diego, Calif., and Invitrogen, Carlsbad, Calif., respectively) is transfected into BEAS2B cells (human bronchial epithelial cells, ATCC). Cells are pre-incubated with final concentrations of test compounds for 2 hr and the level of ICAM1 expression on the cell surface is determined by cell-based ELISA. At a time point 18 hr after poly I:C transfection, cells are fixed with 4% formaldehyde in PBS (100 μL) and then endogenous peroxidase is quenched by the addition of washing buffer (100 μL, 0.05% Tween in PBS: PBS-Tween) containing 0.1% sodium azide and 1% hydrogen peroxide. Cells are washed with wash-buffer (3×200 μL). and after blocking the wells with 5% milk in PBS-Tween (100 μL) for 1 hr, the cells are incubated with anti-human ICAM-1 antibody (50 μL; Cell Signalling Technology, Danvers, Mass.) in 1% BSA PBS overnight at 4° C.
The cells are washed with PBS-Tween (3×200 μL) and incubated with the secondary antibody (100 μL; HRP-conjugated anti-rabbit IgG, Dako Ltd., Glostrup, Denmark). […] The ICAM-1 signal is detected by reading the absorbance at 450 nm against a reference wavelength of 655 nm using a spectrophotometer. The cells are then washed with PBS-Tween (3×200 μL) and total cell numbers in each well are determined by reading absorbance at 595 nm after Crystal Violet staining (50 μL of a 2% solution in PBS) and elution by 1% SDS solution (100 μL) in distilled water. The measured OD 450-655 readings are corrected for cell number by dividing with the OD595 reading in each well. The inhibition of ICAM-1 expression is calculated at each concentration of test compound by comparison with vehicle control.

d-U937 cells = test: Cell viability: MTT assay; assay type: cell-based, human; details: 1 μg/mL
Experimental: (l) The Effect of Test Compounds on Cell Viability: MTT Assay
Differentiated U937 cells are pre-incubated with each test compound (final concentration 1 μg/mL or 10 μg/mL in 200 μL media indicated below) under two protocols: the first for 4 hr in 5% FCS RPMI1640 media and the second in 10% FCS RPMI1640 media for 24 h. The supernatant is replaced with new media (200 μL) and MTT stock solution (10 μL, 5 mg/mL) is added to each well. After incubation for 1 hr the media are removed, DMSO (200 μL) is added to each well and the plates are shaken lightly for 1 hr prior to reading the absorbance at 550 nm. The percentage loss of cell viability is calculated for each well relative to vehicle (0.5% DMSO) treatment. Consequently an apparent increase in cell viability for drug treatment relative to vehicle is tabulated as a negative percentage.

GSK3α = GSK3α (Homo sapiens, UniProt P49840); test: GSK 3α enzyme inhibition (FRET), Method 1; assay type: biochemical; details: Table 4a1
Sequence of GSK3α (P49840 whole entry): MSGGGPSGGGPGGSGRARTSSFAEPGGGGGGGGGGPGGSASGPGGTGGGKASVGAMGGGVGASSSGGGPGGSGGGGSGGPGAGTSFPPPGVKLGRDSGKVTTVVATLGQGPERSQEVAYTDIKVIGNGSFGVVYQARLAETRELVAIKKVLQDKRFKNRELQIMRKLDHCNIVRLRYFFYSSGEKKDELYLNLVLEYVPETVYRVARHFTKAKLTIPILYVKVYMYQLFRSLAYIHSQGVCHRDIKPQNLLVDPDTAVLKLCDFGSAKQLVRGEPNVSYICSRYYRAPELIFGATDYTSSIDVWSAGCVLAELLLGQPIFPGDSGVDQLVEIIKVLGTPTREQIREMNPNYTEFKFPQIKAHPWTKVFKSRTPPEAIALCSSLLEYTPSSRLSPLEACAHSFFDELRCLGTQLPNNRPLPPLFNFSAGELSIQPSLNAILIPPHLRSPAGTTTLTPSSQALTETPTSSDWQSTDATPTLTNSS
Experimental: as §2
The following two assay variants are used for determination of GSK 3a inhibition.
The inhibitory activities of compounds of the invention against the GSK 3a enzyme isoform (Invitrogen), are evaluated by determining the level of activation/phosphorylation of the target peptide. The GSK3-α protein (500 ng/mL, 2.5 μL) is mixed with the test compound (2.5 μL at either 4 μg/mL, 0.4 μg/mL, 0.04 μg/mL, or 0.004 μg/mL) for 2 hr at RT. The FRET peptide (8 μM, 2.5 μL), which is a phosphorylation target for GSK3α, and ATP (40 μM, 2.5 μL) are then added to the enzyme/compound mixture and the resulting mixture incubated for 1 hr. Development reagent (protease, 5 μL) is added for 1 hr prior to detection in a fluorescence microplate reader (Varioskan® Flash, ThermoFisher Scientific).
as §4

Compound	IC50 [1] [nM]	IC50 (cSrc) [nM]	IC50 (Syk) [nM]	EC50 [2] [nM]	IC50 (GSK3α) [nM]	IC50 [3] [nM]	Cell viability at time point in d-U937 cells, 4 h (d-U937 cells)	Cell viability at time point in d-U937 cells, 24 h (d-U937 cells)
COc1ccc(-n2nc(C(C)C)cc2NC(=O)Nc2ccc(Oc3cc(Nc4cc(OC)cc(C(=O)NCCN5CCOCC5)c4)ncn3)c3ccccc23)cc1 [Example 14, 3-((6-((4-(3-(3-isopropyl-1-(4-methoxyphenyl)-1H-pyrazol-5-yl)ureido)naphthalen-1-yl)oxy)pyrimidin-4-yl)amino)-5-methoxy-N-(2-morpholinoethyl)benzamide]	5	4	> 1300	1.2	355	3	−ve (−ve and +ve indicate that the value is below and above respectively, the no significant effect threshold, defined as 30% inhibition at 1 μg/mL at the time point indicated)	+ve (−ve and +ve indicate that the value is below and above respectively, the no significant effect threshold, defined as 30% inhibition at 1 μg/mL at the time point indicated)
COCCNC(=O)c1cc(Nc2nccc(Oc3ccc(NC(=O)Nc4cc(C(C)C)nn4-c4ccc(C)cc4)c4ccccc34)n2)cc(OC)c1 [Example 66, 3-((4-((4-(3-(3-isopropyl-1-(p-tolyl)-1H-pyrazol-5-yl)ureido)naphthalen-1-yl)oxy)pyrimidin-2-yl)amino)-5-methoxy-N-(2-methoxyethyl)benzamide]	3.4	6	234	1.6	> 14300	2.2	−ve (−ve and +ve indicate that the value is below and above respectively, the no significant effect threshold, defined as 30% inhibition at 1 μg/mL at the time point indicated)	−ve (−ve and +ve indicate that the value is below and above respectively, the no significant effect threshold, defined as 30% inhibition at 1 μg/mL at the time point indicated)
Cc1ccc(-n2nc(C(C)C)cc2NC(=O)Nc2ccc(Oc3ccnc(Nc4cc(Cl)cc(C(=O)NCCN5CCOCC5)c4)n3)c3ccccc23)cc1 [Example 60, 3-chloro-5-((4-((4-(3-(3-isopropyl-1-(p-tolyl)-1H-pyrazol-5-yl)ureido)naphthalen-1-yl)oxy)pyrimidin-2-yl)amino)-N-(2-morpholinoethyl)benzamide]	3.9	13	60	1.1	> 13200	132	−ve (−ve and +ve indicate that the value is below and above respectively, the no significant effect threshold, defined as 30% inhibition at 1 μg/mL at the time point indicated)	−ve (−ve and +ve indicate that the value is below and above respectively, the no significant effect threshold, defined as 30% inhibition at 1 μg/mL at the time point indicated)
Cc1ccc(-n2nc(C(C)(C)C)cc2NC(=O)Nc2ccc(Oc3ccnc(Nc4cccc(C(=O)N5CCOCC5)c4)n3)c3ccccc23)cc1 [Example 27, 1-(3-(tert-butyl)-1-(p-tolyl)-1H-pyrazol-5-yl)-3-(4-((2-((3-(morpholine-4-carbonyl)phenyl)amino)pyrimidin-4-yl)oxy)naphthalen-1-yl)urea]	4.1	4	39	1.4	311	11.6	−ve (−ve and +ve indicate that the value is below and above respectively, the no significant effect threshold, defined as 30% inhibition at 1 μg/mL at the time point indicated)	−ve (−ve and +ve indicate that the value is below and above respectively, the no significant effect threshold, defined as 30% inhibition at 1 μg/mL at the time point indicated)

The next compounds have a lower IC50 [1] than those just listed; values first:

IC50 [1] [nM]	IC50 (cSrc) [nM]	IC50 (Syk) [nM]	EC50 [2] [nM]	IC50 (GSK3α) [nM]	Compound	IC50 [3] [nM]	Cell viability at time point in d-U937 cells, 4 h (d-U937 cells)	Cell viability at time point in d-U937 cells, 24 h (d-U937 cells)
3.2	< 1	30	27.8	> 14000	COc1cc(C(=O)NCCN(C)C)ccc1Nc1nccc(Oc2ccc(NC(=O)Nc3cc(C(C)C)nn3-c3ccc(C)cc3)c3ccccc23)n1 [Example 35, N-(2-(dimethylamino)ethyl)-4-((4-((4-(3-(3-isopropyl-1-(p-tolyl)-1H-pyrazol-5-yl)ureido)naphthalen-1-yl)oxy)pyrimidin-2-yl)amino)-3-methoxybenzamide]	140	−ve (−ve and +ve indicate that the value is below and above respectively, the no significant effect threshold, defined as 30% inhibition at 1 μg/mL at the time point indicated)	−ve (−ve and +ve indicate that the value is below and above respectively, the no significant effect threshold, defined as 30% inhibition at 1 μg/mL at the time point indicated)
0.6	2	7	0.2	197	COc1cc(Nc2nccc(Oc3ccc(NC(=O)Nc4cc(C(C)(C)C)nn4-c4ccc(C)cc4)c4ccccc34)n2)cc(C(=O)NCCN(C)C)c1 [Example 43, 3-((4-((4-(3-(3-(tert-butyl)-1-(p-tolyl)-1H-pyrazol-5-yl)ureido)naphthalen-1-yl)oxy)pyrimidin-2-yl)amino)-N-(2-(dimethylamino)ethyl)-5-methoxybenzamide]	0.4	−ve (−ve and +ve indicate that the value is below and above respectively, the no significant effect threshold, defined as 30% inhibition at 1 μg/mL at the time point indicated)	−ve (−ve and +ve indicate that the value is below and above respectively, the no significant effect threshold, defined as 30% inhibition at 1 μg/mL at the time point indicated)
